The values that follow are results of earlier work, collected in patent US9945862B2, “Biomarkers for predicting and assessing responsiveness of thyroid and kidney cancer subjects to lenvatinib compounds” (Eisai R&D Management Co., Ltd., priority 2011, dated 2018).

Each structure is given as a SMILES string.

This data set deals with xenograft models of various tumors. Conditions: by inhibiting angiogenesis; cited from earlier work.

In the case of `COc1cc2nccc(Oc3ccc(NC(=O)NC4CC4)c(Cl)c3)c2cc1C(N)=O` [Lenvatinib, 4-(3-chloro-4(cyclopropylaminocarbonyl)aminophenoxy)-7-methoxy-6-quinolinecarboxamide], the Anti-tumor effect entry is “potent anti-tumor effects”.
